Test results: patent US20230149355A1, “COMPOSITIONS AND METHODS FOR MODULATING TRP CHANNEL ACTIVITY” (priority 2020, published 2023)

Experiments:
[1] = test system: AhR signaling; details: 0.05 μM; cited from earlier work
[2] = test system: E. tarda; experiment: Intestinal E. tarda mCherry accumulation in zebrafish treated with AhR inhibitors; type: in vivo; details: AhR inhibitor 1 μM or folic acid 10 μM, 3 dpf to 6 dpf
Experimental: For E. tarda colonization experiments, fertilized zebrafish eggs were collected, sorted and transferred into a cell culture flask containing 80 mL GZM at 0 dpf. At 3 dpf, dead embryos and 60 mL GZM were removed and replaced with 50 mL fresh GZM in each flask. To facilitate consistent commensal gut bacterial colonization, an additional 10 mL of filtered system water (5 μm filter, SLSV025LS, Millipore) were added to each flask. Overnight E. tarda mCherry culture was harvested, washed three times with GZM. 150 μL of GZM-washed E. tarda mCherry culture were inoculated into each flask. The E. tarda concentration is ˜10^6 CFU/ml. […] At 6 dpf, zebrafish larvae were subjected to fluorescence imaging analysis or CFU quantification. For fluorescence imaging analysis, zebrafish larvae were anesthetized with Tricaine ([…]), mounted in 3% methylcellulose and imaged with a Leica M205 FA upright fluorescence stereomicroscope equipped with a Leica DFC 365FX camera. For CFU quantification, digestive tracts were dissected and transferred into 1 mL sterile PBS which was then mechanically disassociated using a Tissue-Tearor (BioSpec Products, 985370). […] The mCherry+ colonies were quantified from each plate and E. tarda colony forming units (CFUs) per fish were calculated. […]

[3] = test system: intestinal motility; experiment: Zebrafish intestinal motility (PIV-Lab velocity analysis); type: in vivo; details: AhR inhibitor 10 μM or folic acid 10 μM for 2 hours
Experimental: For EEC Trpa1 activation using the Optovin platform, zebrafish larvae were treated with 10 μM Optovin overnight. Following Optovin treatment, unanesthetized zebrafish were mounted in 1% LMA and imaged under a 780 upright Zeiss confocal microscope using 20× water objective lenses. For all the experiments, the mid-intestine region was imaged (FIG. 10D). The intestinal epithelium was selected as the region of interest (ROI) (FIG. 10A). Serial images were obtained at 1 s/frame. A 405 nm pulse of light was applied to the ROI at 1 pulse/10 s. For some experiments (FIG. 7D-F, FIG. 10B-G), the images were obtained at 10 s/frame.
The zebrafish intestinal motility is quantified through recorded image series of zebrafish intestine using the method similar as previously described (Ganz et al., 2018). Intestinal p velocity and v velocity were used to estimate intestinal motility in zebrafish as previously described using the PIV-Lab MATLAB app (Ganz et al., 2018). A positive value of the μ velocity indicates an anterograde intestinal movement and a negative value of the μ velocity indicates a retrograde intestinal movement. The time-course p velocity number is plotted as heatmaps. When calculating the mean velocity, only the mean velocity magnitude was calculated, which therefore doesn't account for the movement direction. The MTrackJ FIJI plugin was used to quantify the mean velocity magnitude (Meijering et al., 2012).

[4] = molecular target: T1, AhR (Homo sapiens, UniProt P35869); details: Kim et al., 2020; cited from earlier work
T1 sequence (P35869 11-848): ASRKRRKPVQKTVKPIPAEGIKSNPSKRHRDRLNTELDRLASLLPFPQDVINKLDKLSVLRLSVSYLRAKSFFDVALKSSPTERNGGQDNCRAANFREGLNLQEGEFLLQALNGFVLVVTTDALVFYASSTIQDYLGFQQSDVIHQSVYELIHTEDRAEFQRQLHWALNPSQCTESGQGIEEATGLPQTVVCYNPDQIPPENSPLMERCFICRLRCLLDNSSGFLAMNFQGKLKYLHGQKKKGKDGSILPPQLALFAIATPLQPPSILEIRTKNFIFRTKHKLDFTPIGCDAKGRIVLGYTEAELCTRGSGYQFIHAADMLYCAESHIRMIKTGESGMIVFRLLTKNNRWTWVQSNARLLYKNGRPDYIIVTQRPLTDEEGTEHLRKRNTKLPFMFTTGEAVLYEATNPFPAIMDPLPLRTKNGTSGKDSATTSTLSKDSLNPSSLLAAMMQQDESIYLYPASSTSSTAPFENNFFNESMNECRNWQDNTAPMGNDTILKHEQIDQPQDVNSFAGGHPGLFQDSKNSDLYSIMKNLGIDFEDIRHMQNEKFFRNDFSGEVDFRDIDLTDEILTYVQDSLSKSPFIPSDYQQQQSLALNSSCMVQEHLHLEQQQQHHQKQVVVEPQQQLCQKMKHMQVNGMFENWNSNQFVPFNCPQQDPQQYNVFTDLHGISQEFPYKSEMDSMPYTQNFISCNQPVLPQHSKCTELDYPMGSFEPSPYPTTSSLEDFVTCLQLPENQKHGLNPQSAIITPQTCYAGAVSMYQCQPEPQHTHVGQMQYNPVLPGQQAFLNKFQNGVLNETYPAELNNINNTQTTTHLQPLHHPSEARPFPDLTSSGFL

Nc1nc2ncc(CNc3ccc(C(=O)N[C@@H](CCC(=O)O)C(=O)O)cc3)nc2c(=O)[nH]1 [Folic acid]
Inhibition of AhR signaling in early zebrafish embryos [1]: inhibits | Effect on E. tarda intestinal accumulation [2]: insufficient to block | Effect on Optovin-UV induced intestinal motility change [3]: insufficient to block | Concentration at which it acts as a competitive AhR antagonist (as low as) [4]: 10 ng/mL
